Usually mortality stands for the share of the test organisms that died.

Holding throughout (format): in vivo
Assay [1] has as its system Musca domestica (houseflies - adults). In words: knockdown test, cotton wool/sugar. The note with it: 4 hours, read-out: grading of knockdown, MD/KD. As to the method:
(§1) The activity of the Product was determined using variety of insect pests. The Product was used in the form of liquid preparations containing 500 , 100 or 10 parts per million (ppm) by weight of the Product. The preparations were made by dissolving the Product in acetone and diluting the solutions with water containing b 0.01% by weight of a wetting agent sold under the trade name "LISSAPOL" NX until the liquid preparations contained the required concentration of the Product. "Lissapol" is a Registered Trade Mark.
(§2) The test procedure adopted with regard to each pest was basically the same and comprised supporting a number of the pests on a medium which was usually a host plant or a foodstuff on which the pests feed, and treating either or both the pests and the medium with the preparations. The mortality of the pests was then assessed at peroods usually varying from one to three days after the treatment.
In the case of the species Musca domestica (housefly), additional tests to determine the knockdown effect of the compounds were performed.
(§3) The results of the tests are given in Table IV for each of the Products, at the rate in parts per million given in the second column, as a grading of mortality designated as A, B or C wherein A indicates 80-100% mortality or knockdown, B indicates 50-79% mortality or knockdown and C indicates less than 50% mortality or knockdown.
(§4) In Table IV the pest organism used is designated by a letter code and the pest species, the support medium or food, and the type and duration of test is given in Table III.

The test system of a further assay is Myzus persicae (aphids). In words: insecticidal mortality test, contact, Chinese cabbage leaf. The note with it: 72 h, 3 days, read-out: grading of mortality, MP. The protocol:
as §1, §2, §3, §4

The test system of assay [2] is Heliothis virescens (tobacco budworm - larvae). In words: whole plant or invertebrate. To be noted: in Gossypium hirsutum, 72 h, read-out: grading of mortality, HV. The protocol:
as §1, §2, §3, §4
(tobacco budworm - larvae)

In assay [3] the test system is Tetranychus urticae (spider mites - adult). As to the kind of experiment: insecticidal mortality test, contact, French bean leaf. The note with it: 72 h, 3 days, read-out: grading of mortality, TU. The protocol:
as §1, §2, §3, §4

Assay [4] concerns Diabrotica balteata (rootworm larvae). As to the kind of experiment: insecticidal mortality test, residual, filter paper/maize seed. To be noted: 72 h, 3 days, read-out: grading of mortality, DB. As to the method:
as §1, §2, §3, §4

Assay [5] relates to Spodoptera exigua (lesser army worm - larvae). In words: insecticidal mortality test, residual, cotton leaf. The note with it: 72 h, 3 days, read-out: grading of mortality, SP. The protocol:
as §1, §2, §3, §4
(lesser army worm - larvae)

Assay [6] concerns Musca domestica (houseflies - adults). In words: insecticidal mortality test, contact, cotton wool/sugar. The note with it: 24 h, 1 day, read-out: grading of mortality, MD. As to the method: as §1, §2, §3, §4
The subject of assay [7] is Blattella germanica (cockroach nymphs). As to the kind of experiment: insecticidal mortality test, residual, plastic pot. To be noted: 72 h, 3 days, read-out: grading of mortality, BG. The protocol: as §1, §2, §3, §4
In assay [8] the test system is Nephotettix cincticeps (green leaf hopper - nymphs). As to the kind of experiment: insecticidal mortality test, contact, rice plant. The note with it: 72 h, 3 days, read-out: grading of mortality, NC. As to the method:
as §1, §2, §3, §4
NC Nephotettix cincticeps

The test system of assay [9] is Niloparvata lugens (brown plant hopper - nymphs). As to the kind of experiment: insecticidal mortality test, contact, rice plant. To be noted: 72 h, 3 days, read-out: grading of mortality, NL. The protocol:
as §1, §2
The results of the tests are given in Table IV for each of the Products, at the rate in parts per million given in the second column, as a grading of mortality designated as A, B or C wherein A indicates 80-100% mortality or knockdown, B indicates 50-79% mortality or knockdown and C indicates less than 50% mortality or knockdown. […]

On to `CCC(C)(COCc1cccc(Oc2ccccc2)c1)C(F)F` (racemic) [Compound 3, (RS)-1,1-Difluoro-2-ethyl-2-methyl-3(3-phenoxybenzyloxy)propane], for which the pest or weed control at 500 ppm in assay [1] is 50 to 79%. Further, the mortality at 500 ppm in the assay with Myzus persicae (aphids) was < 50%; in assay [2], < 50%; in assay [3], < 50%; in assay [4], 80 to 100%; in [5], 80 to 100%; in assay [6], 50 to 79%. The mortality at 500 ppm in assay [7] and in assay [8] was < 50% in each case.
Turning to `CC(C)(COCc1ccc(F)c(Oc2ccccc2)c1)C(F)F` [Compound 1, 1,1-difluoro-2,2-dimethyl-3-(4-fluoro-3-phenoxybenzyloxy)propane], the pest or weed control at 500 ppm in assay [1] is 80 to 100%. Moreover, the mortality at 500 ppm in the assay with Myzus persicae (aphids) was < 50%; in assay [2] it was 80 to 100%; in assay [3], < 50%; in assay [4], 80 to 100%; in assay [5] it was 80 to 100%; in [6] it was 80 to 100%. In addition, the mortality at 500 ppm in assay [9] and in assay [7] was 80 to 100% in each case.
For `CC(C)(COCc1cccc(Oc2ccccc2)c1)C(F)F` [Compound 2, 1,1-Difluoro-2,2-dimethyl-3-(3-phenoxybenzyloxy)propane], the pest or weed control at 500 ppm in assay [1] was in the range of 80 to 100%. Moreover, the mortality at 500 ppm in the assay with Myzus persicae (aphids) is < 50%; in [2], < 50%; in assay [3], < 50%; in [4], 80 to 100%; in assay [5], < 50%; in assay [6], 80 to 100%. For the same compound, the mortality at 500 ppm in assay [7] and in [8] was 80 to 100% in each case.
In the case of `CC(C)(COCc1ccc(F)c(Cc2ccccc2)c1)C(F)F` [Compound 4, 1,1-Difluoro-2,2-dimethyl-3-(4-fluoro-3-benzylbenzyloxy)propane], in assay [1], the pest or weed control at 500 ppm is < 50%. For the same compound, the mortality at 500 ppm with Myzus persicae (aphids) was < 50%; in assay [2] it was < 50%; in assay [3], < 50%; in [4] it was 80 to 100%; in [5] it was 50 to 79%; in assay [6], 80 to 100%. In assay [7], the mortality at 500 ppm was in the range of 50 to 79%.
Turning to `CC(C)(COCc1cccc(Oc2ccccc2)n1)C(F)F` [Compound 5, 1,1-Difluoro-2,2-dimethyl-3-[(6-phenoxypyrid-2-yl)methyloxy]propane], the pest or weed control at 500 ppm in assay [1] fell in the range of 80 to 100%. The mortality at 500 ppm in the assay with Myzus persicae (aphids) is 50 to 79%; in assay [2], < 50%; in [3] it was 80 to 100%; in assay [4] it was 80 to 100%; in assay [5] it was 80 to 100%; in [6] it was 80 to 100%. Also, the mortality at 500 ppm in [9] and in assay [7] was 80 to 100% each time.
With `CC(C)(COCc1ccc(F)c(Nc2ccccc2)c1)C(F)F` [Compound 6, 1,1-Difluoro-2,2-dimethyl-3-(3-phenylamino-4-fluorobenzyloxy)propane], the pest or weed control at 500 ppm in [1] is 50 to 79%. The mortality at 500 ppm in the assay with Myzus persicae (aphids) was 80 to 100%; in [2], 80 to 100%; in [3] it was 80 to 100%; in [4] it was 80 to 100%; in [5], 80 to 100%; in [6], < 50%. In assay [8], the mortality at 500 ppm lay in the range of 80 to 100%.
For `CC(C)(CF)COCc1ccc(F)c(Oc2ccccc2)c1` [Compound 7, 1-Fluoro-2,2-dimethyl-3-(4-fluoro-3-phenoxybenzyloxy)propane], the pest or weed control at 500 ppm in assay [1] is 80 to 100%. Besides, the mortality at 500 ppm in the assay on Myzus persicae (aphids) is < 50%; in [2], 80 to 100%; in assay [3], < 50%; in assay [4], 80 to 100%; in assay [5] it was 80 to 100%; in assay [6], 80 to 100%. Moreover, the mortality at 500 ppm in assay [7] and in assay [8] was 80 to 100% in each case.
For `CC(C)(CF)COCc1cccc(Oc2ccccc2)c1` [Compound 8, 1-fluoro-2,2-dimethyl-3-(3-phenoxybenzyloxy)propane], in assay [1], the pest or weed control at 500 ppm is < 50%. The mortality at 500 ppm in the assay with Myzus persicae (aphids) was < 50%; in assay [2] it was 50 to 79%; in assay [3], < 50%; in [4], 80 to 100%; in assay [5], 80 to 100%; in assay [6] it was 50 to 79%. For the same compound, the mortality at 500 ppm was < 50% in assay [7] and 80 to 100% in assay [8].
Consider `Fc1ccc(COCC2(C(F)F)CCCC2)cc1Oc1ccccc1` [Compound 21, 1-Difluoromethyl-l-(4-fluoro-3-phenoxybenzyloxymethyl)cyclopentane], for which the pest or weed control at 500 ppm in assay [1] was < 50%. In addition, the mortality at 500 ppm with Myzus persicae (aphids) was < 50%; in assay [2] it was 50 to 79%; in assay [3] it was < 50%; in [4], 80 to 100%; in [5], < 50%; in [6], < 50%. In addition, the mortality at 500 ppm in [8] lay within 80 to 100%.

The record behind these values is patent US4792563A, “Insecticidal ethers” (Imperial Chemical Industries PLC, priority 1986, dated 1988).
